Experimental data reported in publication PMC11327196, “A phase 1 study to assess the absolute bioavailability, mass balance, pharmacokinetics, metabolism, and excretion of [^14C]-mobocertinib, an oral inhibitor of EGFR exon 20 insertion mutations, in healthy participants” (Investigational New Drugs, 2024).
Entries after “also recorded” stand apart in the source; their conditions may differ.

Experiments:
[1] = Period 1 absolute bioavailability study: plasma PK after single oral 160 mg mobocertinib capsules; format: in vivo, human
Method: (§1) This was a two-period, open-label, single-dose phase 1 study (NCT03811834) conducted at one clinical site (Celerion, Lincoln, Nebraska, USA) in healthy male participants. The primary objective of Period 1 was to determine the absolute bioavailability of mobocertinib following a single oral dose of 160 mg mobocertinib as capsules and a single intravenous (IV) microdose of 50 µg (~ 2 µCi) [^14C]-mobocertinib. The primary objectives of Period 2 were to (1) assess the cumulative excretion of total radioactivity in urine and feces (mass balance); (2) assess the metabolite profile of mobocertinib in plasma, urine, and feces; and (3) characterize the PK of mobocertinib, AP32960, and AP32914 in plasma, whole blood, and urine, and total radioactivity concentration equivalents in plasma and whole blood following a single oral dose of 160 mg (~ 100 µCi) [^14C]-mobocertinib as an oral solution. A sample size of 6 healthy males was selected without statistical considerations and deemed adequate to meet the study objectives. Furthermore, the sample size was limited based on clinical considerations for human ADME studies and to limit exposure to radioactivity.
(§2) On Day 1 of Period 1, following an overnight fast of at least 10 h, participants received a single 160 mg dose of non-radiolabeled mobocertinib as capsules. At 3.75 h post oral dosing (i.e., 15 min before the median oral tmax of ~ 4 h), participants received a nominal dose of 50 µg (~ 2 µCi) [^14C]-mobocertinib as a 15-minute IV infusion. However, due to nonspecific binding of [^14C]-mobocertinib to the dosing syringe and tubing, actual doses administered ranged from 36.8 to 38.7 µg (1.47 to 1.55 µCi). Participants were required to stay in the clinic from Day − 1 through at least the 96-hour blood draw (Day 5) or until a discharge criterion was met (i.e., ≥ 80% of the total administered radioactive dose was recovered in urine and fecal samples or excretion of radioactivity in urine and feces combined had declined to ≤ 1% of the total administered dose per day for ≥ 2 consecutive intervals), up to a maximum of 7 days postdose (Day 8). Blood samples for the measurement of plasma mobocertinib, AP32960, and AP32914 concentrations were collected predose and at 0.5, 1, 2, 3, 4, 5, 6, 8, 12, 24, 36, 48, 72, and 96 h after oral administration. Additional blood samples to determine [^14C]-total radioactivity, [^14C]-mobocertinib, [^14C]-AP32960, and [^14C]-AP32914 in plasma were collected at 3.75 h after oral dosing (i.e., predose for [^14C] assessments), at the end of the IV infusion, and at 10, 20, and 30 min, and 1, 2, 4, 8, 20, 32, 44, 68, and 92 h after the end of infusion. […] Urine and feces were collected before oral dosing (− 48–0 h); urine was collected over 0–3.75 h, 3.75–12 h and 12–24 h after oral dosing; feces were collected from 0 to 3.75 h and 3.75–24 h after oral dosing; both urine and feces were then collected over 24-hour intervals until a discharge criterion was met, or up to Day 8 (168 h postdose).
(§3) Plasma, whole blood, and urine samples were assayed for mobocertinib, AP32960, and AP32914 concentrations using liquid chromatography-tandem mass spectrometry (Q2 Solutions, Ithaca, New York, USA). The analytical range for each analyte was 0.250 to 500 ng/mL in whole blood and plasma, and 1.00 to 1000 ng/mL in urine. […] Urine and fecal samples were assayed for total radioactivity following the IV dose of [^14C]-mobocertinib in Period 1, and whole blood, plasma, urine, and fecal samples were assayed for total radioactivity following the oral dose of [^14C]-mobocertinib in Period 2 using liquid scintillation counting (LSC; Celerion, Lincoln, Nebraska, USA; LLOQs: Period 1 urine: 0.115–0.118 ng eq/g, feces: 0.720–0.759 ng eq/g; Period 2 whole blood: 87.3–112 ng eq/g, plasma: 116–132 ng eq/mL, urine: 37.8–46.8 ng eq/g, feces: 110–336 ng eq/g across participants). […]

[2] = tested on: platinum-pretreated EGFRex20ins mutation positive locally advanced or metastatic NSCLC; design: method as in PMID 34647988; conditions: 114 patients, mobocertinib 160 mg orally qd; cited from earlier work
[3] = tested on: EGFRex20ins mutation positive locally advanced or metastatic NSCLC; design: method as in doi:10.1016/j.annonc.2023.10.586; conditions: mobocertinib versus chemotherapy, first-line; cited from earlier work
[4] = oral doses ranging from 5 to 180 mg; cited from earlier work
[5] = Safety assessments (adverse events) in healthy participants; format: in vivo, human
Method: Safety was evaluated based on the incidence and severity of AEs and changes from baseline in clinical laboratory results, vital signs, and ECG parameters. AEs were graded according to Common Terminology Criteria for Adverse Events version 5.0.

[6] = Period 1 absolute bioavailability study: plasma PK after IV microdose of [14C]-mobocertinib; format: in vivo, human
Method: as §1, §2, §3

[7] = Period 1, single oral 160 mg mobocertinib capsules, geometric mean (geometric CV%)
[8] = Period 1, IV infusion 50 µg [14C]-mobocertinib, geometric mean (geometric CV%)
[9] = Period 1, IV infusion 50 µg [14C]-mobocertinib, normalized to a 160 mg dose, geometric mean (geometric CV%)

## C=CC(=O)Nc1cc(Nc2ncc(C(=O)OC(C)C)c(-c3cn(C)c4ccccc34)n2)c(OC)cc1N(C)CCN(C)C [Mobocertinib]
[1]; [7]
  CL/F: 152 (64.9) L/h
  Cmax: 56.7 (52.2) ng/mL
[1]; Period 1, single oral 160 mg mobocertinib capsules, median (range)
  tmax: 5.0 (4.0–6.0) h
[1]; male, human, Period 1, oral 160 mg capsules AUC∞ vs dose-normalized IV microdose AUC∞, 90% CI 22.4–60.2%, read-out: geometric mean absolute oral bioavailability
  bioavailability: 36.7%
[1]; male, human, Period 1, single oral 160 mg mobocertinib capsules, geometric mean (geometric CV%)
  AUC(0-inf): 1050 ng·h/mL
[1]; male, human, Period 1, single oral 160 mg mobocertinib capsules, geometric mean (geometric CV%), read-out: Vz/F
  Vd/F: 5030 L
[1]; male, human, Period 1, single oral 160 mg mobocertinib capsules, geometric mean (geometric CV%), read-out: t1/2z (converted)
  half-life: 22.9 h
[2]
  median duration of response: 17.5 months
  median overall survival: 24.0 months
  median progression-free survival: 7.3 months
  objective response rate per independent-review committee: 28%
[3]
  primary endpoint of phase 3 study: not met
[4]
  median time to maximum observed concentration (tmax): 4 h
[5]; 7 healthy male participants, Periods 1 and 2
  deaths or serious AEs: no deaths or serious AEs
[5]; CTCAE version 5.0, both treatment periods
  severity of AEs: grade 1 (mild)
[5]; Period 1
  participants who experienced at least 1 AE: 6
[5]; Period 2
  participants who experienced at least 1 AE: 4
[5]; both treatment periods
  overall safety and tolerability: generally safe and well-tolerated; also recorded: no new safety signals observed
[5]; each in 2 of 7 participants
  incidence of most common AEs (constipation, diarrhea, and nausea, each): 29%
[5]; eructation, nausea, salivary hypersecretion, vomiting on Day 1 of Period 1
  discontinuation because of AEs: One participant discontinued the study early because of multiple AEs
[5]; of 7 participants, whole study
  participants who experienced at least 1 AE: 7

## [^14C]-mobocertinib
[6]; Period 1, 15-min IV infusion 50 µg (~2 µCi) [14C]-mobocertinib, median (range)
  tmax: 0.26 (0.26–1.25) h
[6]; [8]
  CL/F (after IV administration, values represent CL): 55.9 (30.0) L/h
  Vz/F (after IV administration, values represent Vz): 1791 (45.3) L
  t1/2z: 22.2 (41.3) h
[6]; [9]
  AUC∞: 2864 (30.0) ng*h/mL
  Cmax: 624.9 (43.6) ng/mL
